We go through 17 compounds from patent US20260325533A1, “CDK INHIBITOR COMPOUNDS” (ALEKSIA THERAPEUTICS, INC., priority 2023, published 2026).

Where two headings read alike, the source gives them in different places.

Type in all cases: biochemical
One assay concerns the target CDK2/CCNE1 (Homo sapiens, UniProt P24941). Put plainly: CDK2 homogeneous time-resolved fluorescence (HTRF) kinase assay. Conditions: CDK2/CCNE. The procedure, abridged:
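CDK2/CCNE1 (3 nM) preincubated 20 min at 23 °C with compound, then reacted 60 min at 23 °C with 1 mM ATP and 50 nM ULight-4E-BP1 (Thr37/46) peptide. Stopped with EDTA, phospho-peptide detected by Eu-anti-phospho antibody (665 nm or 665/615 ratio). IC50 from 11-point half-log titrations typically starting at 10 μM.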

A further assay concerns the target CDK1/CCNB1 (Homo sapiens, UniProt P06493). As to the kind of experiment: CDK1 homogeneous time-resolved fluorescence (HTRF) kinase assay. The conditions noted are these: CDK1/CCNB. The procedure, abridged:
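Kinase activity is measured as Lance signal (665 nm, or 665/615 nm ratio) from europium-labelled anti-phospho-Thr37/46 antibody binding ULight-4E-BP1 peptide. Reactions contain 0.5 nM enzyme, 1 mM ATP, 1% DMSO and run 60 min at 23 °C before EDTA quench.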

Another assay deals with CDK4/CCND3 (Homo sapiens, UniProt P11802). Put plainly: CDK4 homogeneous time-resolved fluorescence (HTRF) kinase assay. Conditions: CDK4/CCND. The procedure, abridged: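 Compounds were preincubated with 1.5 nM CDK4/CCND3 for 20 min at 23 °C in HEPES buffer (pH not given), then reacted 60 min with 1 mM ATP and 50 nM ULight-4E-BP1 (Thr37/46) peptide. EDTA stop, Eu-anti-phospho-4E-BP1 detection; 665/615 nm ratio; IC50 from 11-point half-log titrations from 10 μM.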

The next assay deals with CDK6/CCND1 (Homo sapiens, UniProt Q00534). As to the kind of experiment: CDK6 homogeneous time-resolved fluorescence (HTRF) kinase assay. The conditions noted are these: CDK6/CCND, 1 mM ATP. The procedure, abridged:
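1 nM enzyme, 1 mM ATP, 50 nM ULight-4E-BP1 (Thr37/46) peptide, 1% DMSO; 20 min compound preincubation, 60 min reaction, 23 °C. EDTA stop, 2 nM Eu-anti-phospho-4E-BP1 antibody 60 min. TR-FRET 665 nm (or 665/615 ratio); IC50 from 11-point half-log titration, top 10 μM.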

Where [1] appears, read: <25 nM, read-out: CDK2/CCNE IC50, <25 nM.
The mark [2] stands for this setting: >250 nM, read-out: CDK1/CCNB IC50 >250 nM.
Where [3] appears, read: 25-250 nM, read-out: CDK4/CCND IC50, 25-250 nM.
Setting [4] is: 25-250 nM, read-out: CDK6/CCND IC50, 25-250 nM.
Where [5] appears, read: >250 nM, read-out: CDK4/CCND IC50, >250 nM.
Setting [6] is: >250 nM, read-out: CDK6/CCND IC50, >250 nM.
[7] abbreviates: 25-250 nM, read-out: CDK1/CCNB IC50, 25-250 nM.
Setting [8] is: 25-250 nM, read-out: CDK2/CCNE IC50, 25-250 nM.

Chain of CDK1/CCNB1 (P06493 whole entry): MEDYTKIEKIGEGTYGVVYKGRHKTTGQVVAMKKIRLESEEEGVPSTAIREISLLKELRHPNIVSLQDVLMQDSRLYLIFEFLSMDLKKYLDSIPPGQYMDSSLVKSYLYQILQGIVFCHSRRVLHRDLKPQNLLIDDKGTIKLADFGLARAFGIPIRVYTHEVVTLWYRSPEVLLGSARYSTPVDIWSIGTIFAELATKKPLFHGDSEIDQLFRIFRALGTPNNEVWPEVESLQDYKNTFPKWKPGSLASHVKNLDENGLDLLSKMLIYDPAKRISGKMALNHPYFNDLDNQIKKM
Chain of CDK1/CCNB1 (P14635 whole entry partner): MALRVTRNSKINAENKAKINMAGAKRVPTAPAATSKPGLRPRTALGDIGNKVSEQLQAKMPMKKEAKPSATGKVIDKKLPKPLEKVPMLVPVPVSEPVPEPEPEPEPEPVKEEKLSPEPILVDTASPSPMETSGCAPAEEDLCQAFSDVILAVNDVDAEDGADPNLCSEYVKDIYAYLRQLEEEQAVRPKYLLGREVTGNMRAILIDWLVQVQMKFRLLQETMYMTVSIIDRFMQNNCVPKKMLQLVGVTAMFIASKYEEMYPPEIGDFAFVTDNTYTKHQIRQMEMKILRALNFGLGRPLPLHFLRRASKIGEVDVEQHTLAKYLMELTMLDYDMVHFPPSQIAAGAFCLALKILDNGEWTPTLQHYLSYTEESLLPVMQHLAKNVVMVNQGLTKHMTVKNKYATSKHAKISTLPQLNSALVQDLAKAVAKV
Chain of CDK4/CCND3 (P11802 whole entry): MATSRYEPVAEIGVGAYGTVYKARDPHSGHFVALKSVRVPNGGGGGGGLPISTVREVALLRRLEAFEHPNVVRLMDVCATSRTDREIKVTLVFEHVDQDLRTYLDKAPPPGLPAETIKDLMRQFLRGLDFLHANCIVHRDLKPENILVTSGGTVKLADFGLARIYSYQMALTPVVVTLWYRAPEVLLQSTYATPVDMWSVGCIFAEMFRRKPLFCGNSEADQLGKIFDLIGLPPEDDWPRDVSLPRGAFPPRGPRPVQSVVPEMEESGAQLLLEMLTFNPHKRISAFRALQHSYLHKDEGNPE
Chain of CDK4/CCND3 (P30281 whole entry partner): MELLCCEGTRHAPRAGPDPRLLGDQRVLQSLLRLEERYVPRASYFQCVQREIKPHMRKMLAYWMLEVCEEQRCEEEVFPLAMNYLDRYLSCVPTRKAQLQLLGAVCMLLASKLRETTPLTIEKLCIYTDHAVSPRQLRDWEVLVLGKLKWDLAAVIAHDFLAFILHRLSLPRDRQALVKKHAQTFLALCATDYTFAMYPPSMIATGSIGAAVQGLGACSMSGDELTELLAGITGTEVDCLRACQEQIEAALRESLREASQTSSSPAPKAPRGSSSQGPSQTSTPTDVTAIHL
Chain of CDK6/CCND1 (Q00534 whole entry): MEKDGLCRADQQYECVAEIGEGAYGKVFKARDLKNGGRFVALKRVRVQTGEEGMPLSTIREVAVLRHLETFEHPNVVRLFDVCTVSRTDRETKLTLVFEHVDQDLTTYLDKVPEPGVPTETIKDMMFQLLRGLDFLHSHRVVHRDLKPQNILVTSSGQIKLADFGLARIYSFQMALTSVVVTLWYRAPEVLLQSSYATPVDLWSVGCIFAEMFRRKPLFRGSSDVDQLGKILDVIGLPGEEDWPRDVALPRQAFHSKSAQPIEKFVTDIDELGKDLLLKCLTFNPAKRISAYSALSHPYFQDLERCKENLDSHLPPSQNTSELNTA
Chain of CDK6/CCND1 (P24385 whole entry partner): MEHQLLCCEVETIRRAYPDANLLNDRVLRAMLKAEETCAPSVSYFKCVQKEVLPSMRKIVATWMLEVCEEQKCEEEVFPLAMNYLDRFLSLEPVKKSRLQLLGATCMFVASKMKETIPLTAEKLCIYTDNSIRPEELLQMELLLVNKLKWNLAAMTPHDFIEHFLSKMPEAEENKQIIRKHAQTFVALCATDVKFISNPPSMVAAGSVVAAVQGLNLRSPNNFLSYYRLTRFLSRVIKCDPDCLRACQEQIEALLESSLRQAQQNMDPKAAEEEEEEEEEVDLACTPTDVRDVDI

Turning to `COc1ccc(NS(=O)(=O)c2ccc(Nc3cc4c(-c5ccc6c(cnn6CC(C)(C)O)c5C)nccc4cn3)cc2)nn1` [Ex 798, 4-((5-(1-(2-hydroxy-2-methylpropyl)-4-methyl-1H-indazol-5-yl)-2,6-naphthyridin-3-yl)amino)-N-(6-methoxypyridazin-3-yl)benzenesulfonamide], the IC50 on CDK2/CCNE1 (setting [1]) is under 25 nM; on CDK1/CCNB1 (setting [2]), over 250 nM; at CDK4/CCND3 (setting [3]), 25 to 250 nM; at CDK6/CCND1 (setting [4]), 25 to 250 nM.

Take `Cc1c(-c2nccc3cnc(Nc4ccc(S(=O)(=O)Nc5ccc(C(F)(F)F)nn5)cc4)cc23)ccc2c1cnn2CC(C)(C)O` [Ex 799, 4-((5-(1-(2-hydroxy-2-methylpropyl)-4-methyl-1H-indazol-5-yl)-2,6-naphthyridin-3-yl)amino)-N-(6-(trifluoromethyl)pyridazin-3-yl)benzenesulfonamide]: the IC50 is under 25 nM on CDK2/CCNE1 (setting [1]), over 250 nM at CDK1/CCNB1 (setting [2]), over 250 nM on CDK4/CCND3 (setting [5]) and over 250 nM on CDK6/CCND1 (setting [6]).

As for `Cc1ccc(NS(=O)(=O)c2ccc(Nc3cc4c(-c5ccc6c(cnn6CC(C)(C)O)c5C)nccc4cn3)cc2)nn1` [Ex 800, 4-((5-(1-(2-hydroxy-2-methylpropyl)-4-methyl-1H-indazol-5-yl)-2,6-naphthyridin-3-yl)amino)-N-(6-methylpyridazin-3-yl)benzenesulfonamide], the IC50 on CDK2/CCNE1 (setting [1]) is under 25 nM; on CDK1/CCNB1 (setting [7]), 25 to 250 nM; at CDK4/CCND3 (setting [3]), 25 to 250 nM; on CDK6/CCND1 (setting [4]), 25 to 250 nM.

As for `Cc1c(-c2nccc3cnc(Nc4ccc(S(=O)(=O)Nc5cccc(C(C)(C)O)c5)cc4)cc23)ccc2c1cnn2CC(C)(C)O` [Ex 802, 4-((5-(1-(2-hydroxy-2-methylpropyl)-4-methyl-1H-indazol-5-yl)-2,6-naphthyridin-3-yl)amino)-N-(3-(2-hydroxypropan-2-yl)phenyl)benzenesulfonamide], the IC50 at CDK2/CCNE1 (setting [1]) is under 25 nM; on CDK1/CCNB1 (setting [2]), over 250 nM; on CDK4/CCND3 (setting [5]), over 250 nM; at CDK6/CCND1 (setting [6]), over 250 nM.

On to `Cc1c(-c2nccc3cnc(Nc4ccc(S(=O)(=O)Nc5cccc(N6CCOCC6)c5)cc4)cc23)ccc2c1cnn2CC(C)(C)O` [Ex 803, 4-((5-(1-(2-hydroxy-2-methylpropyl)-4-methyl-1H-indazol-5-yl)-2,6-naphthyridin-3-yl)amino)-N-(3-morpholinophenyl)benzenesulfonamide], for which the IC50 is under 25 nM on CDK2/CCNE1 (setting [1]), over 250 nM at CDK1/CCNB1 (setting [2]), over 250 nM on CDK4/CCND3 (setting [5]) and over 250 nM at CDK6/CCND1 (setting [6]).

Turning to `COc1cccc(NS(=O)(=O)c2ccc(Nc3cc4c(-c5ccc6c(cnn6CC(C)(C)O)c5C)nccc4cn3)cc2)c1` [Ex 804, 4-((5-(1-(2-hydroxy-2-methylpropyl)-4-methyl-1H-indazol-5-yl)-2,6-naphthyridin-3-yl)amino)-N-(3-methoxyphenyl)benzenesulfonamide], the IC50 was under 25 nM on CDK2/CCNE1 (setting [1]), over 250 nM on CDK1/CCNB1 (setting [2]), over 250 nM at CDK4/CCND3 (setting [5]) and over 250 nM on CDK6/CCND1 (setting [6]).

Regarding `COc1cc(NS(=O)(=O)c2ccc(Nc3cc4c(-c5ccc6c(cnn6CC(C)(C)O)c5C)nccc4cn3)cc2)cc(OC)c1` [Ex 805, N-(3,5-dimethoxyphenyl)-4-((5-(1-(2-hydroxy-2-methylpropyl)-4-methyl-1H-indazol-5-yl)-2,6-naphthyridin-3-yl)amino)benzenesulfonamide], the IC50 at CDK2/CCNE1 (setting [1]) was under 25 nM; at CDK1/CCNB1 (setting [2]), over 250 nM; at CDK4/CCND3 (setting [5]) it was over 250 nM; at CDK6/CCND1 (setting [6]), over 250 nM.

`Cc1c(-c2nccc3cnc(Nc4ccc(S(=O)(=O)Nc5cccc(C(F)(F)F)c5)cc4)cc23)ccc2c1cnn2CC(C)(C)O` [Ex 806, 4-((5-(1-(2-hydroxy-2-methylpropyl)-4-methyl-1H-indazol-5-yl)-2,6-naphthyridin-3-yl)amino)-N-(3-(trifluoromethyl)phenyl)benzenesulfonamide]: the IC50 at CDK2/CCNE1 (setting [8]) was 25 to 250 nM; at CDK1/CCNB1 (setting [2]) it was over 250 nM; on CDK4/CCND3 (setting [5]), over 250 nM; at CDK6/CCND1 (setting [6]), over 250 nM.

Take `Cc1cccc(NS(=O)(=O)c2ccc(Nc3cc4c(-c5ccc6c(cnn6CC(C)(C)O)c5C)nccc4cn3)cc2)c1` [Ex 807, 4-((5-(1-(2-hydroxy-2-methylpropyl)-4-methyl-1H-indazol-5-yl)-2,6-naphthyridin-3-yl)amino)-N-(m-tolyl)benzenesulfonamide]: the IC50 on CDK2/CCNE1 (setting [1]) is under 25 nM; at CDK1/CCNB1 (setting [2]) it was over 250 nM; at CDK4/CCND3 (setting [5]) it was over 250 nM; on CDK6/CCND1 (setting [6]) it was over 250 nM.

For the compound `Cc1cc(C)cc(NS(=O)(=O)c2ccc(Nc3cc4c(-c5ccc6c(cnn6CC(C)(C)O)c5C)nccc4cn3)cc2)c1` [Ex 808, N-(3,5-dimethylphenyl)-4-((5-(1-(2-hydroxy-2-methylpropyl)-4-methyl-1H-indazol-5-yl)-2,6-naphthyridin-3-yl)amino)benzenesulfonamide], the IC50 on CDK2/CCNE1 (setting [8]) was 25 to 250 nM; at CDK1/CCNB1 (setting [2]) it was over 250 nM; on CDK4/CCND3 (setting [5]) it was over 250 nM; on CDK6/CCND1 (setting [6]), over 250 nM.

Consider `Cc1c(-c2nccc3cnc(Nc4ccc(S(=O)(=O)Nc5ccccc5)cc4)cc23)ccc2c1cnn2CC(C)(C)O` [Ex 809, 4-((5-(1-(2-hydroxy-2-methylpropyl)-4-methyl-1H-indazol-5-yl)-2,6-naphthyridin-3-yl)amino)-N-phenylbenzenesulfonamide], for which the IC50 at CDK2/CCNE1 (setting [1]) is under 25 nM; at CDK1/CCNB1 (setting [2]), over 250 nM; at CDK4/CCND3 (setting [5]) it was over 250 nM; on CDK6/CCND1 (setting [6]) it was over 250 nM.

For `Cc1c(-c2nccc3cnc(Nc4ccc(S(=O)(=O)Nc5ccc(C(C)(C)O)cn5)cc4)cc23)ccc2c1cnn2CC(C)(C)O` [Ex 810, 4-((5-(1-(2-hydroxy-2-methylpropyl)-4-methyl-1H-indazol-5-yl)-2,6-naphthyridin-3-yl)amino)-N-(5-(2-hydroxypropan-2-yl)pyridin-2-yl)benzenesulfonamide], the IC50 on CDK2/CCNE1 (setting [1]) was under 25 nM; on CDK1/CCNB1 (setting [2]) it was over 250 nM; on CDK4/CCND3 (setting [5]) it was over 250 nM; at CDK6/CCND1 (setting [4]), 25 to 250 nM.

For `Cc1c(-c2nccc3cnc(Nc4ccc(S(=O)(=O)Nc5cccc(C(C)(C)O)n5)cc4)cc23)ccc2c1cnn2CC(C)(C)O` [Ex 811, 4-((5-(1-(2-hydroxy-2-methylpropyl)-4-methyl-1H-indazol-5-yl)-2,6-naphthyridin-3-yl)amino)-N-(6-(2-hydroxypropan-2-yl)pyridin-2-yl)benzenesulfonamide], the IC50 on CDK2/CCNE1 (setting [1]) is under 25 nM; at CDK1/CCNB1 (setting [7]), 25 to 250 nM; at CDK4/CCND3 (setting [5]), over 250 nM; at CDK6/CCND1 (setting [6]) it was over 250 nM.

With `COc1cccc(NS(=O)(=O)c2ccc(Nc3cc4c(-c5ccc6c(cnn6CC(C)(C)O)c5C)nccc4cn3)cc2)n1` [Ex 812, 4-((5-(1-(2-hydroxy-2-methylpropyl)-4-methyl-1H-indazol-5-yl)-2,6-naphthyridin-3-yl)amino)-N-(6-methoxypyridin-2-yl)benzenesulfonamide], the IC50 was under 25 nM at CDK2/CCNE1 (setting [1]), over 250 nM on CDK1/CCNB1 (setting [2]), over 250 nM at CDK4/CCND3 (setting [5]) and over 250 nM on CDK6/CCND1 (setting [6]).

Regarding `COc1ccnc(NS(=O)(=O)c2ccc(Nc3cc4c(-c5ccc6c(cnn6CC(C)(C)O)c5C)nccc4cn3)cc2)c1` [Ex 813, 4-((5-(1-(2-hydroxy-2-methylpropyl)-4-methyl-1H-indazol-5-yl)-2,6-naphthyridin-3-yl)amino)-N-(4-methoxypyridin-2-yl)benzenesulfonamide], the IC50 is under 25 nM on CDK2/CCNE1 (setting [1]), over 250 nM on CDK1/CCNB1 (setting [2]), over 250 nM at CDK4/CCND3 (setting [5]) and 25 to 250 nM at CDK6/CCND1 (setting [4]).

As to `COc1cc(NS(=O)(=O)c2ccc(Nc3cc4c(-c5ccc6c(cnn6CC(C)(C)O)c5C)nccc4cn3)cc2)nc(OC)c1` [Ex 814, N-(4,6-dimethoxypyridin-2-yl)-4-((5-(1-(2-hydroxy-2-methylpropyl)-4-methyl-1H-indazol-5-yl)-2,6-naphthyridin-3-yl)amino)benzenesulfonamide], the IC50 at CDK2/CCNE1 (setting [1]) is under 25 nM; at CDK1/CCNB1 (setting [2]), over 250 nM; on CDK4/CCND3 (setting [5]), over 250 nM; at CDK6/CCND1 (setting [6]), over 250 nM.

For `Cc1c(-c2nccc3cnc(Nc4ccc(S(=O)(=O)Nc5cccc(C(F)(F)F)n5)cc4)cc23)ccc2c1cnn2CC(C)(C)O` [Ex 815, 4-((5-(1-(2-hydroxy-2-methylpropyl)-4-methyl-1H-indazol-5-yl)-2,6-naphthyridin-3-yl)amino)-N-(6-(trifluoromethyl)pyridin-2-yl)benzenesulfonamide], the IC50 on CDK2/CCNE1 (setting [1]) was under 25 nM; at CDK1/CCNB1 (setting [7]) it was 25 to 250 nM; at CDK4/CCND3 (setting [5]) it was over 250 nM; at CDK6/CCND1 (setting [6]) it was over 250 nM.
